Measurements reported in patent US20250326732A1 (Pretzel Therapeutics, Inc., priority 2021, published 2025).
pIC50: −log10 of the molar value.

Molecular target: POLRMT (Homo sapiens (Human), UniProt O00411)
Experiment: homogeneous TR-FRET assay of mitochondrial transcription (inhibition of POLRMT)
Type: biochemical
Conditions: 7.5 nM POLRMT, 15 nM TFB2M, 30 nM TFAM, 0.5 nM DNA template, 500 μM NTPs, 37° C. for 60 minutes
Procedure: The ability of some compounds of the present invention to inhibit POLRMT were determined in a homogeneous TR-FRET Assay using high-throughput screening in a 384-well plate format. […] Detection of the product is facilitated by hybridization of two DNA-oligonucleotide probes to specific and adjacent sequences within the RNA product sequence. Upon annealing of the probes, two fluorophores are coupled directly to an acceptor nucleotide probe (ATTO647, 5′), or introduced via a coupled streptavidin with a biotinylated donor nucleotide probe (Europium cryptate) that is brought into sufficient proximity to serve as a fluorescence-donor-acceptor pair. Thus, a FRET signal at 665 nm is generated upon excitation at 340 nm.
The DNA template is restriction linearized proximal to the promotor 3′-end (pUC-LSP). […] No nucleotide triphosphate mix is added to negative control samples. Microplates with compounds to be tested in the assay are prepared from 10 mM compound stocks in 100% DMSO, equal amounts of DMSO without any compound are added to positive control and negative control samples.
During the incubation, a mix of the detection reagents is prepared in a buffer such that the enzymatic reaction is terminated due to chelating of Mg-ions and increased ionic strength, containing 50 mM Tris-HCl (pH 7.5), 700 mM NaCl, 20 mM EDTA, and 0.01% (w/v) Tween-20. Europium-streptavidin is pre-incubated with a 200-fold molar excess of a random sequence oligonucleotide to block unspecific binding of oligo, for two hours at ambient temperature in the dark. Afterwards, the blocked Europium-streptavidin is kept on ice until use.
At the end of the enzymatic reaction time, 5 μL detection oligo mix in the detection buffer is added, and assay plates are mixed and kept at ambient temperature for one hour, protected from light. The concentration of the Acceptor nucleotide oligo (e.g., ATTO647N-5′-[…]-3′) and Donor nucleotide oligo (e.g., bio-5′-[…](-bio)[…]-bio-3′) in each assay well is 1 nM, and 3 nM, respectively.
After incubation with oligo mix, 5 μL of pre-blocked Europium-streptavidin reagent is dispensed to each assay well, assay plates are again mixed and kept at ambient temperature for one hour, protected from light.
The generated signal is measured with BMG Pherastar microtiter plate reader with a TRF light unit, using excitation at 340 nm, an integration time of 200 μs, and a delay time of 100 μs, before detection at 620 nm and 665 nm. The ratio of donor- and acceptor-fluorescence is used as a measure of the generated transcript product (i.e. enzymatic activity).

Chain of POLRMT (O00411 42-1230): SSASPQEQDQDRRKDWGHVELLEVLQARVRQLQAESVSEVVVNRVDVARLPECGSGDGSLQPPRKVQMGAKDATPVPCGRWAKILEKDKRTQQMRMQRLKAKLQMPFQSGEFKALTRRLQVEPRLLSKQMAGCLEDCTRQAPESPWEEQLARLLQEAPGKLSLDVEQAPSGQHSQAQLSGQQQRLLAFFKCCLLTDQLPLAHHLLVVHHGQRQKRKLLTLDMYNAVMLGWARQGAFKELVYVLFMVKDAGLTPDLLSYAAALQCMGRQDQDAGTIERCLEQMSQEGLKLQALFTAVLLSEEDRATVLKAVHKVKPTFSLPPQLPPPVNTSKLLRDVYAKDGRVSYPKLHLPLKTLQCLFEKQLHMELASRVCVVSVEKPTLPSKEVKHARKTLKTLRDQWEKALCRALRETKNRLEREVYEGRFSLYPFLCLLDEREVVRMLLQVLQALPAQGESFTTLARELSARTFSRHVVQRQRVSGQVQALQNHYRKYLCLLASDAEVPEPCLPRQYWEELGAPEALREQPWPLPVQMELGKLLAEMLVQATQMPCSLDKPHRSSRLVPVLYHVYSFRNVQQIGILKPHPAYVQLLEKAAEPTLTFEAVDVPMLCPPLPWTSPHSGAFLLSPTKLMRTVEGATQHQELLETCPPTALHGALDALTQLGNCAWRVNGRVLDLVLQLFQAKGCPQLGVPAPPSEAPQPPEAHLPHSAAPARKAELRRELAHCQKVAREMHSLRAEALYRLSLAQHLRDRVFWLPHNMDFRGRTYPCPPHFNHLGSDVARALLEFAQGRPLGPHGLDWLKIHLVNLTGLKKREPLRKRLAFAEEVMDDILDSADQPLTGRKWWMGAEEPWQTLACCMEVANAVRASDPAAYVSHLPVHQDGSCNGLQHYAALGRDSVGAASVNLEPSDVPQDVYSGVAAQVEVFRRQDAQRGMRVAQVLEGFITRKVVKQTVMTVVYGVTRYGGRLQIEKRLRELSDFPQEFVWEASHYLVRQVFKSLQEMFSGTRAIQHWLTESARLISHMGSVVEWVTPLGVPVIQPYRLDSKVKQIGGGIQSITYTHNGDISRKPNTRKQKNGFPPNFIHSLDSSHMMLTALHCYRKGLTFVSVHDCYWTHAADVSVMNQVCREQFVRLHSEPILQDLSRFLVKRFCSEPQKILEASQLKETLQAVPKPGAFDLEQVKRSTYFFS

SMILES | pIC50
COC(=O)C(C)Cc1ccc2c(-c3ccc(F)cc3Cl)cc(=O)oc2c1 (stereo not shown) [Example 15, methyl 3-(4-(2-chloro-4-fluorophenyl)-2-oxo-2H-chromen-7-yl)-2-methylpropanoate] | 5.70
CCNC(=O)[C@@H](C)N(C)c1ccc2c(-c3ccc(F)cc3Cl)cc(=O)oc2c1 [Example 56, (R)-2-((4-(2-chloro-4-fluorophenyl)-2-oxo-2H-chromen-7-yl)(methyl)amino)-N-ethylpropanamide] | 6.70
CCOC(=O)[C@@H](C)Nc1ccc2c(-c3ccc(F)cc3Cl)cc(=O)oc2c1 [Example 26, ethyl (4-(2-chloro-4-fluorophenyl)-2-oxo-2H-chromen-7-yl)-D-alaninate] | 6.40
CN(C)C(=O)N(C)Cc1ccc2c(-c3ccc(F)cc3Cl)cc(=O)oc2c1 [Example 06, 1-((4-(2-chloro-4-fluorophenyl)-2-oxo-2H-chromen-7-yl)methyl)-1,3,3-trimethylurea] | 5.52
CCN(C)C(=O)c1ccc2c(-c3ccc(F)cc3Cl)cc(=O)oc2c1 [Example 23, 4-(2-chloro-4-fluorophenyl)-N-ethyl-N-methyl-2-oxo-2H-chromene-7-carboxamide] | 4.72
Cc1ccccc1-c1cc(=O)oc2cc(N(C)Cc3ccn(C)n3)ccc12 [Example 125, 7-(methyl((1-methyl-1H-pyrazol-3-yl)methyl)amino)-4-(o-tolyl)-2H-chromen-2-one] | 7.00
COCC(C(N)=O)N(C)c1ccc2c(-c3ccccc3C)cc(=O)oc2c1 (stereo not shown) [Example 202, 3-methoxy-2-(methyl(2-oxo-4-(o-tolyl)-2H-chromen-7-yl)amino)propanamide] | 5.70
Cc1ccccc1-c1cc(=O)oc2cc([C@@H]3C[C@H]3C(=O)N(C)C)ccc12 (relative stereo) [Example 241, chiral-(trans)-N,N-dimethyl-2-(2-oxo-4-(o-tolyl)-2H-chromen-7-yl)cyclopropane-1-carboxamide] | 5.30
C[C@H](C(=O)N(C)C)N(C)c1ccc2c(-c3ccc(F)cc3Cl)cc(=O)oc2c1 [Example 46, (R)-2-((4-(2-chloro-4-fluorophenyl)-2-oxo-2H-chromen-7-yl)(methyl)amino)-N,N-dimethylpropanamide] | 7.30
Cc1ccccc1-c1cc(=O)oc2cc([C@@H]3C[C@H]3C(N)=O)ccc12 (relative stereo) [Example 238, chiral-(trans)-2-(2-oxo-4-(o-tolyl)-2H-chromen-7-yl)cyclopropane-1-carboxamide] | 5.52
Cc1ccccc1-c1cc(=O)oc2cc(N(C)Cc3nccs3)ccc12 [Example 167, 7-(methyl(thiazol-2-ylmethyl)amino)-4-(o-tolyl)-2H-chromen-2-one] | 7.00
Cc1ccccc1-c1cc(=O)oc2cc(N(C)[C@H](C)C(=O)O)ccc12 [Example 108, N-methyl-N-(2-oxo-4-(o-tolyl)-2H-chromen-7-yl)-D-alanine] | 7.40
Cc1ccccc1-c1cc(=O)oc2cc(C(=O)N(C)Cc3nccn3C)ccc12 [Example 114, N-methyl-N-((1-methyl-1H-imidazol-2-yl)methyl)-2-oxo-4-(o-tolyl)-2H-chromene-7-carboxamide] | 4.44
Cc1ccccc1-c1cc(=O)oc2cc([C@@H]3C[C@H]3C(=O)N(C)C)ccc12 (relative stereo) [Example 240, chiral-(trans)-N,N-dimethyl-2-(2-oxo-4-(o-tolyl)-2H-chromen-7-yl)cyclopropane-1-carboxamide] | 5.10
CCOC(=O)[C@H]1CCCN(C(=O)[C@@H](C)Oc2cc(C)cc3oc(=O)cc(-c4ccc(F)cc4)c23)C1 [Example 159, ethyl (S)-1-((R)-2-((4-(4-fluorophenyl)-7-methyl-2-oxo-2H-chromen-5-yl)oxy)propanoyl)piperidine-3-carboxylate] | < 4.00

Continued, values first:

pIC50 | SMILES
< 4.00 | CC(=O)N(C)[C@@H]1CCCN(C(=O)c2ccc3c(-c4ccccc4C)cc(=O)oc3c2)C1 [Example 172, (R)—N-methyl-N-(1-(2-oxo-4-(o-tolyl)-2H-chromene-7-carbonyl)piperidin-3-yl)acetamide]
6.52 | Cc1ccccc1-c1cc(=O)oc2cc(NC(=O)C(C)C)ccc12 [Example 33, N-(2-oxo-4-(o-tolyl)-2H-chromen-7-yl) isobutyramide]
5.70 | CC(=O)NC(C)c1ccc2c(-c3ccccc3C)cc(=O)oc2c1 (stereo not shown) [Example 96, N-(1-(2-oxo-4-(o-tolyl)-2H-chromen-7-yl)ethyl)acetamide]
4.85 | Cc1ccccc1-c1cc(=O)oc2cc(CC(C)C(=O)N3CCC[C@H](S(N)(=O)=O)C3)ccc12 (single isomer, unassigned) [Example 98]
6.15 | Cc1ccc2c(-c3ccccc3C)cc(=O)oc2c1 [Example 39, 7-methyl-4-(o-tolyl)-2H-chromen-2-one]
4.77 | Cc1ccccc1-c1cc(=O)oc2cc(CC(C)C(=O)N(C)C)ccc12 (single isomer, unassigned) [Example 65, N,N,2-trimethyl-3-(2-oxo-4-(o-tolyl)-2H-chromen-7-yl)propanamide]
6.52 | Cc1ccccc1-c1cc(=O)oc2cc(CN(C)C(=O)N3CCC(C(=O)O)CC3)ccc12 [Example 147, 1-(methyl((2-oxo-4-(o-tolyl)-2H-chromen-7-yl)methyl)carbamoyl)piperidine-4-carboxylic acid]
6.70 | Cc1ccccc1-c1cc(=O)oc2cc(NCC(C)(C)C(=O)O)ccc12 [Example 127, 2,2-dimethyl-3-((2-oxo-4-(o-tolyl)-2H-chromen-7-yl)amino)propanoic acid]
5.52 | Cc1ccccc1-c1cc(=O)oc2cc(NC(C)(C)C(N)=O)ccc12 [Example 210, 2-methyl-2-((2-oxo-4-(o-tolyl)-2H-chromen-7-yl)amino)propanamide]
7.30 | Cc1ccccc1-c1cc(=O)oc2cc(N(C)C(C)C(N)=O)ccc12 (stereo not shown) [Example 195, 2-(methyl(2-oxo-4-(o-tolyl)-2H-chromen-7-yl)amino)propanamide]
4.77 | CNC(=O)[C@H]1CCCN(C(=O)C(C)Cc2ccc3c(-c4ccccc4C)cc(=O)oc3c2)C1 (single isomer, unassigned) [Example 93]
6.40 | Cc1ccccc1-c1cc(=O)oc2cc(CC(C)C(=O)N3CC[C@H](C(=O)O)C3)ccc12 (single isomer, unassigned) [Example 99]
< 4.00 | Cc1ccccc1-c1cc(=O)oc2cc(C(=O)N3CCC(CN(C)C)C3)ccc12 (stereo not shown) [Example 181, 7-(3-((dimethylamino)methyl)pyrrolidine-1-carbonyl)-4-(o-tolyl)-2H-chromen-2-one]
6.00 | Cc1ccccc1-c1cc(=O)oc2cc(C(=O)N3CCCCC3)ccc12 [Example 37, 7-(piperidine-1-carbonyl)-4-(o-tolyl)-2H-chromen-2-one]
7.00 | Cc1ccccc1-c1cc(=O)oc2cc(N[C@H](C)C(=O)N3CCC[C@H](C(=O)O)C3)ccc12 [Example 80, (S)-1-((2-oxo-4-(o-tolyl)-2H-chromen-7-yl)-D-alanyl)piperidine-3-carboxylic acid]
6.00 | Cc1ccccc1-c1cc(=O)oc2cc(CCC(=O)N3CCCCC3)ccc12 [Example 49, 7-(3-oxo-3-(piperidin-1-yl)propyl)-4-(o-tolyl)-2H-chromen-2-one]
< 4.00 | Cc1ccccc1-c1cc(=O)oc2cc(C(=O)N3CCCC(N(C)C)C3)ccc12 (stereo not shown) [Example 170, 7-(3-(dimethylamino)piperidine-1-carbonyl)-4-(o-tolyl)-2H-chromen-2-one]
5.70 | Cc1ccccc1-c1cc(=O)oc2cc([C@H]3C[C@H]3C(N)=O)ccc12 (relative stereo) [Example 235, (cis)-2-(2-oxo-4-(o-tolyl)-2H-chromen-7-yl)cyclopropane-1-carboxamide]
6.52 | Cc1ccccc1-c1cc(=O)oc2cc(CC(C)C(=O)N3CCC[C@H](S(N)(=O)=O)C3)ccc12 (single isomer, unassigned) [Example 97]
6.10 | Cc1ccccc1-c1cc(=O)oc2cc(N(C)CC(=O)NCC(=O)O)ccc12 [Example 223, N-methyl-N-(2-oxo-4-(o-tolyl)-2H-chromen-7-yl)glycylglycine]
5.10 | Cc1ccccc1-c1cc(=O)oc2cc(CC(C)C(=O)N3CCC[C@H](C(N)=O)C3)ccc12 (single isomer, unassigned) [Example 90]
6.40 | CC(=O)Nc1ccc2c(-c3ccccc3C)cc(=O)oc2c1 [Example 32, N-(2-oxo-4-(o-tolyl)-2H-chromen-7-yl)acetamide]
